Several values for one entry are separate records, joined by “and”; a condition that tells them apart may be missing. Identical values can stand only once. Like-named read-outs stand apart in the source and are kept apart here.
How the values were obtained:
[1] = test system: CYPIR; assay type: in vivo, Cyperus iria
From the text: (§1) Seeds or nutlets of the desired test plant species were planted in a soil matrix prepared by mixing a loam or sandy loam soil (e.g., 28.6 percent silt, 18.8 percent clay, and 52.6 percent sand, with a pH of about 5.8 and an organic matter content of about 1.8 percent) and calcareous grit in an 80 to 20 ratio. The soil matrix was contained in plastic pots with a volume of 1 quart and a surface area of 83.6 square centimeters (cm^2). When required to ensure good germination and healthy plants, a fungicide treatment and/or other chemical or physical treatment was applied. The plants were grown for 8-22 days in a greenhouse with an approximate 14 hour (h) photoperiod which was maintained at about 29° C. during the day and 26° C. during the night. Nutrients (Peters Excel® 15-5-15 5-Ca 2-Mg and iron chelate) were applied in the irrigation solution as needed and water was added on a regular basis. Supplemental lighting was provided with overhead metal halide 1000-Watt lamps as necessary. The plants were employed for testing when they reached the first through fourth true leaf stage.
(§2) Treatments consisted of the acid or esters of 4-amino-3-chloro-6-(4-chloro-2-fluoro-3-methoxyphenyl)-5-fluoropyridine-2-carboxylic acid (Compound A), each formulated as an SC (suspension concentrate), and various insecticidal components alone and in combination. Forms of compound A were applied on an acid equivalent basis.
Treatment requirements were calculated based upon the rates being tested, the concentration of active ingredient or acid equivalent in the formulation, and a 12 milliliter (mL) application volume at a rate of 187 liters per hectare (L/ha).
(§3) For treatments comprised of formulated compounds, measured amounts of compounds were placed individually in 25 mL glass vials and diluted in a volume of 1.25% volume per volume (v/v) Agri-Dex® crop oil concentrate to obtain 12× stock solutions. […] Application solutions were prepared by adding an appropriate amount of each stock solution (e.g., 1 mL) and diluted to the appropriate final concentrations with the addition of […] of an aqueous mixture of 1.25% (v/v) crop oil concentrate so that the final spray solutions contained 1.25+/−0.05% (v/v) crop oil concentrate.
(§4) As required, additional water and/or 97:3 v/v acetone/DMSO was added to individual application solutions so that the final acetone and DMSO concentrations of the application solutions being compared were 8.1% and 0.25%, respectively.
(§5) All stock solutions and applications solutions were visually inspected for compound compatibility prior to application. Spray solutions were applied to the plant material with an overhead Mandel track sprayer equipped with 8002E nozzles calibrated to deliver 187 L/ha over an application area of 0.503 square meters (m^2) at a spray height of 18 to 20 inches (46 to 50 cm) above average plant canopy height. Control plants were sprayed in the same manner with the solvent blank.
(§6) The treated plants and control plants were placed in a greenhouse as described above and watered by sub-irrigation to prevent wash-off of the test compounds. After approximately 3 weeks, the condition of the test plants as compared to that of the untreated plants was determined visually and scored on a scale of 0 to 100 percent where 0 corresponds to no injury or growth inhibition and 100 corresponds to complete kill.
(§7) Colby's equation was used to determine the herbicidal effects expected from the mixtures (Colby, S. R. Calculation of the synergistic and antagonistic response of herbicide combinations. Weeds 1967, 15, 20-22.).
(§8) The following equation was used to calculate the expected activity of mixtures containing two active ingredients, A and B: Expected=A+B−(A×B/100)

[2] = test system: LEFCH; test: whole plant or invertebrate; assay type: in vivo, Leptochloa chinensis
Procedure: as §1, with “When required to ensure good germination and healthy plants, a fungicide treatment and/or other chemical or physical treatment was applied.” left out
as §2, §3, §4, §5, §6, §7, §8

Q: What does the source list for COc1c(Cl)ccc(-c2nc(C(=O)O)c(Cl)c(N)c2F)c1F [Compound A Acid, 4-amino-3-chloro-6-(4-chloro-2-fluoro-3-methoxyphenyl)-5-fluoropyridine-2-carboxylic acid]?
A: Visual Weed Control (%) - 20 DAA CYPIR Obs ([1]; 4.38 g ae/ha alone): 30%; Visual Weed Control (%) - 20 DAA LEFCH Obs ([2]; 4.38 g ae/ha alone): 0%; Visual Weed Control (%) - 20 DAA LEFCH Obs ([2]; 5.3 g ae/ha alone): 0%; Visual Weed Control (%) - 20 DAA LEFCH Obs ([2]; 10.6 g ae/ha alone): 20%; Visual Weed Control (%) - 21 DAA LEFCH Obs ([2]; 21 DAA, 8.75 g ae/ha alone): 30%; Visual Weed Control (%) - 21 DAA LEFCH Obs ([2]; 21 DAA, 17.5 g ae/ha alone): 30%; Visual Weed Control (%) - 20 DAA LEFCH Obs ([2]; 21.2 g ae/ha alone): 45%

Q: COc1c(Cl)ccc(-c2nc(C(=O)OCc3ccccc3)c(Cl)c(N)c2F)c1F [Compound A Benzyl Ester] was tested. Which “Visual Weed Control (%) - 22 DAA CYPIR Obs” value ([1]; 4.38 g ae/ha alone) did it give?
A: 70%

Q: What about the “Visual Weed Control (%) - 21 DAA CYPIR Obs” value ([1]; 8 g ae/ha alone) of the same compound?
A: 50%

Q: And the “Visual Weed Control (%) - 21 DAA CYPIR Obs” value ([1]; 21 DAA, 8 g ae/ha alone)?
A: 50%

Q: What about the “Visual Weed Control (%) - 20 DAA LEFCH Obs” value ([2]; 4.38 g ae/ha alone) of the same compound?
A: 15% and 20%

Q: And the “Visual Weed Control (%) - 21 DAA LEFCH Obs” value ([2]; 4.38 g ae/ha alone)?
A: 10%

Q: And the “Visual Weed Control (%) - 19 DAA LEFCH Obs” value ([2]; 8 g ae/ha alone)?
A: 45%

Q: And the “Visual Weed Control (%) - 20 DAA LEFCH Obs” value ([2]; 8 g ae/ha alone)?
A: 15%

Q: What about the “Visual Weed Control (%) - 20 DAA LEFCH Obs” value ([2]; 8.75 g ae/ha alone) of the same compound?
A: 30% and 35%

Q: What about the “Visual Weed Control (%) - 21 DAA LEFCH Obs” value ([2]; 8.75 g ae/ha alone) of the same compound?
A: 25%

Q: What about the “Visual Weed Control (%) - 19 DAA LEFCH Obs” value ([2]; 16 g ae/ha alone) of the same compound?
A: 45%

Q: What about the “Visual Weed Control (%) - 20 DAA LEFCH Obs” value ([2]; 16 g ae/ha alone) of the same compound?
A: 25%

Q: And the “Visual Weed Control (%) - 20 DAA LEFCH Obs” value ([2]; 17.5 g ae/ha alone)?
A: 50% and 60%

Q: What about the “Visual Weed Control (%) - 21 DAA LEFCH Obs” value ([2]; 17.5 g ae/ha alone) of the same compound?
A: 30%

Q: And the “Visual Weed Control (%) - 19 DAA LEFCH Obs” value ([2]; 19 DAA, 8 g ae/ha alone)?
A: 45%

Q: And the “Visual Weed Control (%) - 19 DAA LEFCH Obs” value ([2]; 19 DAA, 16 g ae/ha alone)?
A: 45%

Q: And the “Visual Weed Control (%) - 19 DAA LEFCH Obs” value ([2]; 19 DAA, 32 g ae/ha alone)?
A: 50%

Q: What about the “Visual Weed Control (%) - 21 DAA LEFCH Obs” value ([2]; 21 DAA, 8 g ae/ha alone) of the same compound?
A: 15%

Q: What about the “Visual Weed Control (%) - 21 DAA LEFCH Obs” value ([2]; 21 DAA, 16 g ae/ha alone) of the same compound?
A: 15%

Q: What about the “Visual Weed Control (%) - 21 DAA LEFCH Obs” value ([2]; 21 DAA, 17.5 g ae/ha alone) of the same compound?
A: 50%

Q: And the “Visual Weed Control (%) - 21 DAA LEFCH Obs” value ([2]; 21 DAA, 32 g ae/ha alone)?
A: 25%

Q: And the “Visual Weed Control (%) - 19 DAA LEFCH Obs” value ([2]; 32 g ae/ha alone)?
A: 50%

Q: What about the “Visual Weed Control (%) - 20 DAA LEFCH Obs” value ([2]; 32 g ae/ha alone) of the same compound?
A: 30%

Q: And the pest or weed control at 4.38 g/ha ([2]; Dinebra chinensis, post-emergence, 528 h, 4.38 g ae/ha alone, read-out: Visual Weed Control (%) - 22 DAA LEFCH Obs)?
A: 30%

Q: And the pest or weed control at 8 g/ha ([2]; Dinebra chinensis, post-emergence, 528 h, 8 g ae/ha alone, read-out: Visual Weed Control (%) - 22 DAA LEFCH Obs)?
A: 25%

Q: And the pest or weed control at 16 g/ha ([2]; Dinebra chinensis, post-emergence, 528 h, 16 g ae/ha alone, read-out: Visual Weed Control (%) - 22 DAA LEFCH Obs)?
A: 30%

Q: What about the pest or weed control at 8 g/ha ([2]; Dinebra chinensis, post-emergence, 528 h, 22 DAA, 8 g ae/ha alone, second part of Table 18, read-out: Visual Weed Control (%) - 22 DAA LEFCH Obs) of the same compound?
A: 18%

Q: What about the pest or weed control at 16 g/ha ([2]; Dinebra chinensis, post-emergence, 528 h, 22 DAA, 16 g ae/ha alone, read-out: Visual Weed Control (%) - 22 DAA LEFCH Obs) of the same compound?
A: 25%

Q: And the pest or weed control at 16 g/ha ([2]; Dinebra chinensis, post-emergence, 528 h, 22 DAA, 16 g ae/ha alone, second part of Table 18, read-out: Visual Weed Control (%) - 22 DAA LEFCH Obs)?
A: 43%

Q: What about the pest or weed control at 32 g/ha ([2]; Dinebra chinensis, post-emergence, 528 h, 22 DAA, 32 g ae/ha alone, read-out: Visual Weed Control (%) - 22 DAA LEFCH Obs) of the same compound?
A: 55%

Q: What about the pest or weed control at 32 g/ha ([2]; Dinebra chinensis, post-emergence, 528 h, 22 DAA, 32 g ae/ha alone, second part of Table 18, read-out: Visual Weed Control (%) - 22 DAA LEFCH Obs) of the same compound?
A: 53%

Q: What about the pest or weed control at 32 g/ha ([2]; Dinebra chinensis, post-emergence, 528 h, 32 g ae/ha alone, read-out: Visual Weed Control (%) - 22 DAA LEFCH Obs) of the same compound?
A: 60%

Q: What does the source list for CC(c1ccc(C(F)(F)F)nc1)S(C)(=O)=NC#N (stereo not shown) [Sulfoxaflor, N-[methyloxido[1-[6-(trifluoromethyl)-3-pyridinyl]ethyl]-λ^4-sulfanylidene]cyanamide]?
A: Visual Weed Control (%) - 21 DAA CYPIR Obs ([1]; 21 DAA, 75 g ai/ha alone): 0%; Visual Weed Control (%) - 21 DAA CYPIR Obs ([1]; 21 DAA, 150 g ai/ha alone): 0%; Visual Weed Control (%) - 21 DAA LEFCH Obs ([2]; 21 DAA, 12.5 g ai/ha alone): 0%; Visual Weed Control (%) - 21 DAA LEFCH Obs ([2]; 21 DAA, 25 g ai/ha alone): 0%; Visual Weed Control (%) - 21 DAA LEFCH Obs ([2]; 21 DAA, 37.5 g ai/ha alone): 0%; Visual Weed Control (%) - 21 DAA LEFCH Obs ([2]; 21 DAA, 50 g ai/ha alone): 0%; Visual Weed Control (%) - 21 DAA LEFCH Obs ([2]; 21 DAA, 75 g ai/ha alone): 0%; Visual Weed Control (%) - 21 DAA LEFCH Obs ([2]; 21 DAA, 150 g ai/ha alone): 0%

— patent US9237747B2, “Herbicidal compositions comprising 4-amino-3-chloro-5-fluoro-6-(4-chloro-2-fluoro-3-methoxyphenyl) pyridine-2-carboxylic acid or a derivative thereof and insecticides” (priority 2013, dated 2016)
